We go through 18 compounds from ChEMBL document CHEMBL1130855, “Carbohydrate modifications in the spirostane cellobioside cholesterol absorption inhibitor series” (1998).

Structures are written as SMILES.

Test [1] has as its system Cricetinae gen. sp. As to the kind of experiment: Inhibition of cholesterol absorption in the hamster. The class given is functional.
The subject of test [2] is Cricetinae gen. sp. As to the kind of experiment: Inhibitory activity against cholesterol absorption in the hamster. It counts as functional.

One may read the ED50 as the dose at which the effect has come halfway, by size or by number of responders. A higher ED50 goes with weaker potency. Turning to `C[C@@H]1CC[C@@]2(OC1)OC1C[C@H]3[C@@H]4CC[C@H]5C[C@@H](O[C@@H]6O[C@@H](C)[C@@H](O[C@@H]7O[C@@H](CO)[C@@H](O)[C@H](O)[C@@H]7O)[C@H](O)[C@@H]6O)CC[C@]5(C)[C@H]4CC(=O)[C@]3(C)C1[C@@H]2C` (stereo partly specified), the ED50 in test [1] stood at 5 mg/kg. This compound also yielded a Relative potency in test [2] of 167.

`C[C@@H]1CC[C@@]2(OC1)O[C@H]1C[C@H]3[C@@H]4CC[C@H]5C[C@@H](O[C@@H]6O[C@@H](CO)[C@@H](O[C@@H]7O[C@@H](C)[C@@H](O)[C@H](O)[C@@H]7O)[C@H](O)[C@@H]6O)CC[C@]5(C)[C@H]4CC(=O)[C@]3(C)[C@H]1[C@@H]2C` had an ED50 in test [1] of 3.2 mg/kg. Besides, the Relative potency in test [2] amounted to 107.

`C[C@@H]1CC[C@@]2(OC1)O[C@H]1C[C@H]3[C@@H]4CC[C@H]5C[C@@H](O[C@@H]6O[C@@H](COC(=O)Nc7ccccc7F)[C@@H](O[C@@H]7O[C@@H](COC(=O)Nc8ccccc8F)[C@@H](OC(=O)Nc8ccccc8F)[C@H](O)[C@@H]7O)[C@H](O)[C@@H]6O)CC[C@]5(C)[C@H]4C(=O)C[C@]3(C)[C@H]1[C@@H]2C`: it took a dose of 0.2 mg/kg to reach the 50% effect level in test [1] (ED50). In test [2], this compound had a Relative potency of 8.

`C[C@@H]1CC[C@@]2(OC1)O[C@H]1C[C@H]3[C@@H]4CC[C@H]5C[C@@H](O[C@@H]6O[C@@H](CO)[C@@H](O[C@@H]7O[C@@H](CO)[C@@H](OC(=O)Nc8ccccc8F)[C@H](O)[C@@H]7O)[C@H](O)[C@@H]6O)CC[C@]5(C)[C@H]4C(=O)C[C@]3(C)[C@H]1[C@@H]2C` had an ED50 in test [1] of 0.1 mg/kg. In test [2], this compound displayed a Relative potency of 4.

With `C[C@@H]1CC[C@@]2(OC1)O[C@H]1C[C@H]3[C@@H]4CC[C@H]5C[C@@H](O[C@@H]6O[C@@H](CO)[C@@H](O[C@@H]7O[C@@H](COC(=O)Nc8ccccc8F)[C@@H](O)[C@H](O)[C@@H]7O)[C@H](O)[C@@H]6O)CC[C@]5(C)[C@H]4C(=O)C[C@]3(C)[C@H]1[C@@H]2C`, it took a dose of 0.2 mg/kg to reach the 50% effect level in test [1] (ED50). This compound also gave a Relative potency in test [2] of 8.

For the compound `C[C@@H]1CC[C@@]2(OC1)O[C@H]1C[C@H]3[C@@H]4CC[C@H]5C[C@@H](O[C@@H]6O[C@@H](CO)[C@@H](O[C@@H]7O[C@@H](C)C[C@H](O)[C@@H]7O)[C@H](O)[C@@H]6O)CC[C@]5(C)[C@H]4CC(=O)[C@]3(C)[C@H]1[C@@H]2C`, in test [1], the ED50 came to 3 mg/kg. For the same compound, the Relative potency in test [2] is given as 100.

As for `C[C@@H]1CC[C@@]2(OC1)O[C@H]1C[C@H]3[C@@H]4CC[C@H]5C[C@@H](O[C@@H]6O[C@@H](C)[C@@H](O[C@@H]7O[C@@H](C)[C@@H](O)[C@H](O)[C@@H]7O)[C@H](O)[C@@H]6O)CC[C@]5(C)[C@H]4CC(=O)[C@]3(C)[C@H]1[C@@H]2C`, the ED50 in test [1] was 5 mg/kg. The same compound came in with a Relative potency in test [2] of 167.

As to `C[C@@H]1CC[C@@]2(OC1)O[C@H]1C[C@H]3[C@@H]4CC[C@H]5C[C@@H](O[C@@H]6O[C@@H](CO)[C@@H](O[C@@H]7O[C@@H](CO)C[C@H](O)[C@@H]7O)[C@H](O)[C@@H]6O)CC[C@]5(C)[C@H]4CC(=O)[C@]3(C)[C@H]1[C@@H]2C`, the ED50 in test [1] was 13 mg/kg. Further, in test [2], the Relative potency came out at 433.

As to `C[C@@H]1CC[C@@]2(OC1)O[C@H]1C[C@H]3[C@@H]4CC[C@H]5C[C@@H](O[C@@H]6O[C@@H](CO)[C@@H](O[C@@H]7O[C@@H](COC(=O)Nc8ccccc8F)[C@@H](OC(=O)Nc8ccccc8F)[C@H](O)C7O)[C@H](O)[C@@H]6O)CC[C@]5(C)[C@H]4CC(=O)[C@]3(C)[C@H]1[C@@H]2C` (stereo partly specified), it took a dose of 0.07 mg/kg to reach the 50% effect level in test [1] (ED50). Further, in test [2], the Relative potency amounted to 2.3.

`C[C@@H]1CC[C@@]2(OC1)O[C@H]1C[C@H]3[C@@H]4CC[C@H]5C[C@@H](O[C@@H]6O[C@@H](CO)[C@@H](O[C@@H]7O[C@@H](COC(=O)Nc8ccccc8F)[C@@H](OC(=O)Nc8ccccc8F)[C@H](O)C7O)[C@H](O)[C@@H]6O)CC[C@]5(C)[C@H]4C(=O)C[C@]3(C)[C@H]1[C@@H]2C` (stereo partly specified) had an ED50 in test [1] of 0.025 mg/kg. In addition, the Relative potency in test [2] is listed as 1.

In turn, `C[C@@H]1CC[C@@]2(OC1)O[C@H]1C[C@H]3[C@@H]4CC[C@H]5C[C@@H](O[C@@H]6O[C@@H](COC(=O)Nc7ccccc7F)C(O[C@@H]7O[C@@H](CO)C(O)[C@H](O)C7O)[C@H](O)C6O)CC[C@]5(C)[C@H]4C(=O)C[C@]3(C)[C@H]1[C@@H]2C` (stereo partly specified) showed an ED50 in test [1] of 7 mg/kg. Moreover, the Relative potency in test [2] is recorded as 280.

`C[C@@H]1CC[C@@]2(OC1)O[C@H]1C[C@H]3[C@@H]4CC[C@H]5C[C@@H](O[C@@H]6O[C@@H](CO)[C@@H](O[C@@H]7O[C@@H](COC(=O)Nc8ccccc8F)C[C@H](O)[C@@H]7O)[C@H](O)[C@@H]6O)CC[C@]5(C)[C@H]4CC(=O)[C@]3(C)[C@H]1[C@@H]2C` came in with an ED50 in test [1] of 0.15 mg/kg. The Relative potency in test [2] came to 5.

In turn, `C[C@@H]1CC[C@@]2(OC1)O[C@H]1C[C@H]3[C@@H]4CC[C@H]5C[C@@H](O[C@@H]6O[C@@H](COC(=O)Nc7ccccc7F)[C@@H](O[C@@H]7O[C@@H](COC(=O)Nc8ccccc8F)[C@@H](O)[C@H](O)[C@@H]7O)[C@H](O)[C@@H]6O)CC[C@]5(C)[C@H]4C(=O)C[C@]3(C)[C@H]1[C@@H]2C` returned a 50% effective dose (ED50) in test [1] of 0.8 mg/kg. This compound had a Relative potency in test [2] of 32.

Regarding `C[C@@H]1CC[C@@]2(OC1)O[C@H]1C[C@H]3[C@@H]4CC[C@H]5C[C@@H](O[C@@H]6O[C@@H](CO)[C@@H](O[C@@H]7O[C@@H](CO)[C@@H](OC(=O)Nc8ccccc8F)[C@H](OC(=O)Nc8ccccc8F)[C@@H]7O)[C@H](O)[C@@H]6O)CC[C@]5(C)[C@H]4C(=O)C[C@]3(C)[C@H]1[C@@H]2C`, in test [1], the 50% effect level (ED50) was put at a dose of 0.1 mg/kg. This compound also yielded a Relative potency in test [2] of 4.

On to `C[C@@H]1CC[C@@]2(OC1)O[C@H]1C[C@H]3[C@@H]4CC[C@H]5C[C@@H](O[C@@H]6O[C@@H](CO)[C@@H](O[C@@H]7O[C@@H](CO)[C@@H](OC(=O)Nc8ccccc8F)[C@H](O)[C@@H]7O)[C@H](O)[C@@H]6O)CC[C@]5(C)[C@H]4CC(=O)[C@]3(C)[C@H]1[C@@H]2C`, for which the 50% effect level in test [1] (ED50) was put at a dose of 0.15 mg/kg. In test [2], this compound came in with a Relative potency of 5.

The compound `C[C@@H]1CC[C@@]2(OC1)O[C@H]1C[C@H]3[C@@H]4CC[C@H]5C[C@@H](O[C@@H]6O[C@@H](CO)[C@@H](O[C@@H]7O[C@@H](COC(=O)Nc8ccccc8F)[C@@H](O)[C@H](O)[C@@H]7O)[C@H](O)[C@@H]6O)CC[C@]5(C)[C@H]4CC(=O)[C@]3(C)[C@H]1[C@@H]2C` displayed an ED50 in test [1] of 0.3 mg/kg. The compound also yielded a Relative potency in test [2] of 10.

`C[C@@H]1CC[C@@]2(OC1)O[C@H]1C[C@H]3[C@@H]4CC[C@H]5C[C@@H](O[C@@H]6O[C@@H](CO)[C@@H](O[C@@H]7O[C@@H](C)[C@@H](OC(=O)Nc8ccccc8F)[C@H](O)[C@@H]7O)[C@H](O)[C@@H]6O)CC[C@]5(C)[C@H]4CC(=O)[C@]3(C)[C@H]1[C@@H]2C` returned an ED50 in test [1] of 0.03 mg/kg. For the same compound, in test [2], the Relative potency amounted to 1.

Consider `C[C@@H]1CC[C@@]2(OC1)O[C@H]1C[C@H]3[C@@H]4CC[C@H]5C[C@@H](O[C@@H]6O[C@@H](CO)[C@@H](O[C@@H]7O[C@@H](CO)[C@@H](O)[C@H](O)[C@@H]7O)[C@H](O)[C@@H]6O)CC[C@]5(C)[C@H]4CC(=O)[C@]3(C)[C@H]1[C@@H]2C` [CELLOBIOSYL HECOGENIN], for which it took a dose of 10 mg/kg to reach the 50% effect level in test [1] (ED50). In test [2], the Relative potency was 333.
